From patent US9186381B2, “Medicament for liver regeneration and for treatment of liver failure” (Helmholtz Zentrum Fuer Infektionsforschung GmbH, priority 2011, dated 2015)

Biological target: T1, purified MKK4 protein (Homo sapiens, UniProt P45985)
T1 construct: made in house
T1 sequence (P45985 1-399): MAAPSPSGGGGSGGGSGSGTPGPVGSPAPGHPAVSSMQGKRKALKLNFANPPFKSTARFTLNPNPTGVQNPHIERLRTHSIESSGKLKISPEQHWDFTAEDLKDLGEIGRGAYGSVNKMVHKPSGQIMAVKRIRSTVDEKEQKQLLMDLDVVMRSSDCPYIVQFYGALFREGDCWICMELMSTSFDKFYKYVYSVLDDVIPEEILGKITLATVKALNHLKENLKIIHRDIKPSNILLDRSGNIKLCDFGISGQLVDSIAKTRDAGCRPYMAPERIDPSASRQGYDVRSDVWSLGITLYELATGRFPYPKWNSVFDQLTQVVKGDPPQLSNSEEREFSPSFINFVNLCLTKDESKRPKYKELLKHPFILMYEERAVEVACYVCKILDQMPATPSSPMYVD
Test: in vitro MKK4 kinase assay, phosphorylation of substrate JNK1a1 with 32P-ATP
Format: biochemical
Settings: positive control, remaining activity
Protocol: The inhibitory effect of compounds against MKK4 was analysed in an in vitro assay using purified MKK4 protein, e.g. obtained from a cell line that was genetically manipulated to over-express MKK4 from an expression cassette containing the nucleotide sequence SEQ ID NO: 1204 as a coding sequence and affinity purification using e.g. an antibody directed against MKK4 protein.
In the assay, purified active MKK4 protein was incubated with its substrate JNK1a1 and ^32P-labelled gATP (5 μCi, approx. 10 μM), without additional active compound, with the small inhibitory compound, or with Genistein as a positive control. For the assay, kinase assay buffer (20 mM HEPES pH 7.5; 10 mM MgCl2; 1 mg/ml BSA; 1 mM Na3VO4; 1 mM DTT) was used. An inhibitory effect of the small inhibitory compound (final concentration 50 μM) was detected as a reduction of the phosphorylation activity of MKK4 protein on its substrate JNK1a1 by measuring the amount of radioactive (^32P) phosphate in JNK1a1. Phosphorylation of JNK1a1 was measured in the presence of 2 ml scintillation cocktail per sample by using a scintillation counter (Wallac, Liquid Scintillation Counter). In this assay, Genistein gave an inhibition to approx. 80% activity compared to the assay without additional active compound.

SMILES | inhibition to % activity compared to the assay without additional active compound
O=c1c(-c2ccc(O)cc2)coc2cc(O)cc(O)c12 [Genistein] | approx. 80%

Same assay, conditions: small inhibitory compound final concentration 50 μM, 32P-gATP approx. 10 μM, value is remaining activity, read-out: Inhibition, relative activity of MKK4 compared to control (without additional compound) (%)

SMILES | remaining activity at 50 µM
O=C(O)c1ccc2c3c(ncnc13)-c1ccccc1C2=O [BAS00368055, 7-oxobenzo[e]perimidine-4-carboxylic acid] | 66.2%
Cn1c(O)c(C(=O)Nc2ccncc2)c(=O)c2ccccc21 [BAS00525963, 2-hydroxy-1-methyl-4-oxo-N-pyridin-4-ylquinoline-3-carboxamide] | 72.6%
O=[N+]([O-])c1cccc(/C=N/c2ccc3[nH]ncc3c2)c1O [BAS00697444, 2-(1H-indazol-5-yliminomethyl)-6-nitrophenolate] | 79%
COc1cc([N+](=O)[O-])cc(/C=N/c2ccc3[nH]ncc3c2)c1O [BAS00697462, 2-(1H-indazol-5-yliminomethyl)-6-methoxy-4-nitrophenolate] | 71.1%
COc1nc(Oc2cccc(/C=C(\C#N)c3nn(CCO)c(N)c3C#N)c2)nc(N2CCCCC2)n1 [BAS00896568, 5-amino-3-[(Z)-1-cyano-2-[3-[(4-methoxy-6-piperidin-1-yl-1,3,5-triazin-2-yl)oxy]phenyl]ethenyl]-1-(2-hydroxyethyl)pyrazole-4-carbonitrile] | 58.4%
Cc1n[nH]c(C)c1CCc1cc(O)n2ncc(C(=O)Nc3ccccc3)c2n1 [SYN22174524, 5-[2-(3,5-dimethyl-1H-pyrazol-4-yl)ethyl]-7-oxo-N-phenyl-1H-pyrazolo[1,5-a]pyrimidine-3-carboxamide] | 47.8%
Cc1n[nH]c(C)c1CCc1cc(=O)n2ncc(-c3ccc(F)cc3)c2[nH]1 [SYN22174787, 5-[2-(3,5-dimethyl-1H-pyrazol-4-yl)ethyl]-3-(4-fluorophenyl)-1H-pyrazolo[1,5-a]pyrimidin-7-one] | 41.5%
Cc1ccc(-c2cnn3c(=O)cc(CCc4c(C)n[nH]c4C)[nH]c23)cc1 [SYN22175977, 5-[2-(3,5-dimethyl-1H-pyrazol-4-yl)ethyl]-3-(4-methylphenyl)-1H-pyrazolo[1,5-a]pyrimidin-7-one] | 55.5%
COCc1nn2c(=O)cc(CCc3c(C)n[nH]c3C)[nH]c2c1-c1ccc(Cl)cc1 [SYN22176267, 3-(4-chlorophenyl)-5-[2-(3,5-dimethyl-1H-pyrazol-4-yl)ethyl]-2-(methoxymethyl)-1H-pyrazolo[1,5-a]pyrimidin-7-one] | 59.1%
COCc1nn2c(=O)cc(CCc3c(C)n[nH]c3C)[nH]c2c1-c1ccc(C)cc1 [SYN22176367, 5-[2-(3,5-dimethyl-1H-pyrazol-4-yl)ethyl]-2-(methoxymethyl)-3-(4-methylphenyl)-1H-pyrazolo[1,5-a]pyrimidin-7-one] | 49.9%
COc1cccc(-c2nn3c(=O)cc(CCc4c(C)n[nH]c4C)[nH]c3c2C)c1 [SYN22176842, 5-[2-(3,5-dimethyl-1H-pyrazol-4-yl)ethyl]-2-(3-methoxyphenyl)-3-methyl-pyrazolo[5,1-b]pyrimidin-7-ol] | 54.9%
COc1ccccc1-c1nn2c(=O)cc(CCc3c(C)n[nH]c3C)[nH]c2c1C [SYN22176990, 5-[2-(3,5-dimethyl-1H-pyrazol-4-yl)ethyl]-2-(2-methoxyphenyl)-3-methyl-pyrazolo[5,1-b]pyrimidin-7-ol] | 58.2%
Cc1n[nH]c(C)c1CCc1cc(=O)n2nc(C)c(-c3ccc(Cl)cc3)c2[nH]1 [SYN22177890, 3-(4-chlorophenyl)-5-[2-(3,5-dimethyl-1H-pyrazol-4-yl)ethyl]-2-methyl-1H-pyrazolo[1,5-a]pyrimidin-7-one] | 56.3%
Cc1ccc(NC(=O)c2cccc(N(C)C)c2)cc1NC(=O)c1ccc(O)cc1 [ZM 336372, 3-(Dimethylamino)-N-[3-[(4-hydroxybenzoyl)-amino]-4-methylphenyl]benzamide, reference compound] | 54.2%

Test system: MKK4 in the liver
Test: inhibition of MKK4 in vivo by small inhibitors administered to mice
Settings: dosage efficient for in vivo inactivation of MKK4
Protocol: In the alternative to inhibition of MKK4 activity in liver tissue by inhibitory RNA, SP600125, myricitine, Genistein, or PD98059 were used for inactivating MKK4 in the liver. Generally, SP600125, myricitine, Genistein, or PD98059 were administered to mice at a dosage efficient for in vivo inactivation of MKK4. Preferably, the dosage was efficient to inactivate at least 80%, more preferably at least 90 or 95% of mean in vivo MKK4 activity.

SMILES | liver regeneration | proliferation | protection against induced apoptosis
O=c1c(-c2ccc(O)cc2)coc2cc(O)cc(O)c12 [Genistein] | significant increase in liver regeneration | increase in proliferation | protection against induced apoptosis
COc1cccc(-c2cc(=O)c3ccccc3o2)c1N [PD98059] | significant increase in liver regeneration | increase in proliferation | protection against induced apoptosis
O=c1c(O)c(-c2cc(O)c(O)c(O)c2)oc2cc(O)cc(O)c12 [myricitine] | significant increase in liver regeneration | increase in proliferation | protection against induced apoptosis
